Values after ≈ are worked out from the molar mass of the structure shown. Where two headings read alike, the source gives them in different places.
Columns and labels:
GnRH-R on U-87 MG cells = target: T1, GnRH-R on U-87 MG cells (Homo sapiens, UniProt P30968); assay: SMFS blocking experiments with free GnRH-R ligands; type: binding
T1 construct: endogenous in cells; host or cells: U-87 MG
T1 sequence (P30968 1-328): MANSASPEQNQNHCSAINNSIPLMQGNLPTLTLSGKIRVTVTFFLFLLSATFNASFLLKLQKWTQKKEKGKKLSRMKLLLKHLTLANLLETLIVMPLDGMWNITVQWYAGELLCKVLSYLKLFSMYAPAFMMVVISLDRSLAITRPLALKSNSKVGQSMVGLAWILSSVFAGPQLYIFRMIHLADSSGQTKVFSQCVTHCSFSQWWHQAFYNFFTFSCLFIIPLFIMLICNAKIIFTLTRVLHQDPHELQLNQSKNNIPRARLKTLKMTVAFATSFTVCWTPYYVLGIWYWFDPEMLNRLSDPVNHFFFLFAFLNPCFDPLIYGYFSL
Experimental: Blocking experiments were performed with different GnRH-R ligands (anti-GnRH-R antibody, Glu-GnRH, goserelin acetate, and TPGnRH). U-87 MG cells were analysed with tips functionalised with TPGnRH nanofibers and then the free ligands were added at a final concentration of 1 μg mL^−1 (anti-GnRH-R antibody) or 50 μg mL^−1 (Glu-GnRH, goserelin acetate and TPGnRH). U-87 MG cells treated with ligands were incubated for, at least, one hour at room temperature, and then the same cells were analysed with the same TPGnRH-functionalised tip at the same location in the cell.

[1] = Enzymatic stability in U-87 MG cell homogenates
Experimental: Fresh blood, obtained from adult male Wistar rats, was collected in sterile the 170 I.U. lithium heparin-coated tubes (Vacutainer, BD Bioscience, UK). Blood was centrifuged immediately at 2,000 g for 15 minutes (4° C.) and supernatant was collected and diluted to 50% (v/v) with PBS. Livers and brains were obtained from adult male Wistar rats, and the tissues were blotted to dryness, weighed, sliced into pieces, and homogenised with ice-cold PBS (in 2 mL of buffer g^−1 of tissue) using the glass homogeniser. Then, tissue homogenates were centrifuged at 4,300 g for 1 hour (4° C.) and the supernatants collected. Glioblastoma cell homogenates were prepared using U-87 MG cells. Cells were cultured in Eagle's Minimum Essential Medium (EMEM) supplemented with 10% (v/v) heat-inactivated fetal bovine serum (FBS), 1% (v/v) of non-essential amino acids (NEAA) and 1 mM of sodium pyruvate in T75 flasks with a surface area of 75 cm^2 and maintained in a humidified atmosphere of 5% CO2 at 37° C. Breast cancer cell homogenates were prepared using MDA-MB-231 cells. Cells were cultured in Dulbecco's Modified Eagle Medium (DMEM) supplemented with high levels of glucose (4.5 g/L), 10% (v/v) heat-inactivated fetal bovine serum (FBS), 1% (v/v) of non-essential amino acids (NEAA) and penicillin and streptomycin (500 units/mL) in T75 flasks with a surface area of 75 cm^2 and maintained in a humidified atmosphere of 5% CO2 at 37° C. Media was changed for both cell lines every 3 to 4 days. After reaching confluence, cells were washed twice with Hank's Balanced Salt Solution (HBSS) and incubated with ˜2 mL of TrypLE Enzyme at 37° C. for ˜3 minutes. Then, complete media were added, and cells were centrifuged at 1,000 rpm for 5 minutes in C-28A centrifuge (Boeco, Germany). […] Total protein concentration in the homogenates was determined using the Bradford assay with bovine serum albumin as a standard. […] Samples were vortexed for 15 minutes, centrifuged for 15 minutes at 12,000 rpm, and the supernatants were collected and analysed by RP-HPLC.

[2] = Enzymatic stability in MDA-MB-231 cell homogenates
Experimental: (§1) Fresh blood, obtained from adult male Wistar rats, was collected in sterile the 170 I.U. lithium heparin-coated tubes (Vacutainer, BD Bioscience, UK). Blood was centrifuged immediately at 2,000 g for 15 minutes (4° C.) and supernatant was collected and diluted to 50% (v/v) with PBS. Livers and brains were obtained from adult male Wistar rats, and the tissues were blotted to dryness, weighed, sliced into pieces, and homogenised with ice-cold PBS (in 2 mL of buffer g^−1 of tissue) using the glass homogeniser. Then, tissue homogenates were centrifuged at 4,300 g for 1 hour (4° C.) and the supernatants collected. Glioblastoma cell homogenates were prepared using U-87 MG cells. Cells were cultured in Eagle's Minimum Essential Medium (EMEM) supplemented with 10% (v/v) heat-inactivated fetal bovine serum (FBS), 1% (v/v) of non-essential amino acids (NEAA) and 1 mM of sodium pyruvate in T75 flasks with a surface area of 75 cm^2 and maintained in a humidified atmosphere of 5% CO2 at 37° C. Breast cancer cell homogenates were prepared using MDA-MB-231 cells. Cells were cultured in Dulbecco's Modified Eagle Medium (DMEM) supplemented with high levels of glucose (4.5 g/L), 10% (v/v) heat-inactivated fetal bovine serum (FBS), 1% (v/v) of non-essential amino acids (NEAA) and penicillin and streptomycin (500 units/mL) in T75 flasks with a surface area of 75 cm^2 and maintained in a humidified atmosphere of 5% CO2 at 37° C. Media was changed for both cell lines every 3 to 4 days. After reaching confluence, cells were washed twice with Hank's Balanced Salt Solution (HBSS) and incubated with ˜2 mL of TrypLE Enzyme at 37° C. for ˜3 minutes. Then, complete media were added, and cells were centrifuged at 1,000 rpm for 5 minutes in C-28A centrifuge (Boeco, Germany). U-87 MG or MDA-MB-231 cells (˜10×10^6 cells mL^−1) were re-suspended in ice-cold PBS, and homogenised with a 2×5 second pulses with the probe sonicator (UP200S Ultrasonic processor, SciMed, 200 watts, amplitude of 60%). Cell debris were removed by centrifugation at 2,000 rpm for 5 minutes (Jouan B4i, Thermo Scientific, Paisley, UK). Supernatant was collected and stored at −80° C. Total protein concentration in the homogenates was determined using the Bradford assay with bovine serum albumin as a standard. Diluted plasma, tissue or cell homogenates were pre-warmed during ˜30 minutes at 37° C. Peptide stock solutions (Glu-GnRH, goserelin acetate and TPGnRH, 5 mM in PBS, 500 μL) were prepared and added to the homogenate solutions (120 μL). PAX-loaded nanofibers prepared at a ratio of 1:7.36 [PAX:TPGnRH consisting of 3 μmol (2.56 mg mL^−1) of PAX, 22.02 μmol (31.46 mg mL^−1) of TPGnRH], as previously described, and further diluted in PBS to achieve a concentration of 5 mM of TPGnRH and 500 nM of PAX (120 μL) were added to the homogenates. At various time intervals, an aliquot was collected (80 μL) and added to ice-cold ACN (80 μL) to quench the enzymatic activity. Samples were stored at −80° C. for at least 3 hours to maximise protein precipitation. Samples were vortexed for 15 minutes, centrifuged for 15 minutes at 12,000 rpm, and the supernatants were collected and analysed by RP-HPLC.

[3] = Enzymatic stability in rat liver homogenates; conditions: 50% (v/v) rat liver homogenates; analyte in brackets of label
Experimental: as §1

[4] = Enzymatic stability in rat plasma; conditions: 50% (v/v) rat plasma
Experimental: (§2) Fresh blood, obtained from adult male Wistar rats, was collected in sterile the 170 I.U. lithium heparin-coated tubes (Vacutainer, BD Bioscience, UK). Blood was centrifuged immediately at 2,000 g for 15 minutes (4° C.) and supernatant was collected and diluted to 50% (v/v) with PBS. Livers and brains were obtained from adult male Wistar rats, and the tissues were blotted to dryness, weighed, sliced into pieces, and homogenised with ice-cold PBS (in 2 mL of buffer g^−1 of tissue) using the glass homogeniser. Then, tissue homogenates were centrifuged at 4,300 g for 1 hour (4° C.) and the supernatants collected. Glioblastoma cell homogenates were prepared using U-87 MG cells. Cells were cultured in Eagle's Minimum Essential Medium (EMEM) supplemented with 10% (v/v) heat-inactivated fetal bovine serum (FBS), 1% (v/v) of non-essential amino acids (NEAA) and 1 mM of sodium pyruvate in T75 flasks with a surface area of 75 cm^2 and maintained in a humidified atmosphere of 5% CO2 at 37° C. Breast cancer cell homogenates were prepared using MDA-MB-231 cells. Cells were cultured in Dulbecco's Modified Eagle Medium (DMEM) supplemented with high levels of glucose (4.5 g/L), 10% (v/v) heat-inactivated fetal bovine serum (FBS), 1% (v/v) of non-essential amino acids (NEAA) and penicillin and streptomycin (500 units/mL) in T75 flasks with a surface area of 75 cm^2 and maintained in a humidified atmosphere of 5% CO2 at 37° C. Media was changed for both cell lines every 3 to 4 days. After reaching confluence, cells were washed twice with Hank's Balanced Salt Solution (HBSS) and incubated with ˜2 mL of TrypLE Enzyme at 37° C. for ˜3 minutes. Then, complete media were added, and cells were centrifuged at 1,000 rpm for 5 minutes in C-28A centrifuge (Boeco, Germany). U-87 MG or MDA-MB-231 cells (˜10×10^6 cells mL^−1) were re-suspended in ice-cold PBS, and homogenised with a 2×5 second pulses with the probe sonicator (UP200S Ultrasonic processor, SciMed, 200 watts, amplitude of 60%). Cell debris were removed by centrifugation at 2,000 rpm for 5 minutes (Jouan B4i, Thermo Scientific, Paisley, UK). Supernatant was collected and stored at −80° C. Total protein concentration in the homogenates was determined using the Bradford assay with bovine serum albumin as a standard. Diluted plasma, tissue or cell homogenates were pre-warmed during ˜30 minutes at 37° C. Peptide stock solutions (Glu-GnRH, goserelin acetate and TPGnRH, 5 mM in PBS, 500 μL) were prepared and added to the homogenate solutions (120 μL). […] Samples were vortexed for 15 minutes, centrifuged for 15 minutes at 12,000 rpm, and the supernatants were collected and analysed by RP-HPLC.

[5] = target: T2, GnRH-R expressed on glioblastoma cells (Homo sapiens, UniProt P30968); assay: Receptor binding by single molecule force spectroscopy; conditions: for koff: read-out: Dissociation Rate (Koff)
T2 construct: GnRH peptides to the GnRH-R expressed on glioblastoma cells; endogenous in cells; host or cells: U-87 MG, UP-007, UP-029, SEBTA-023 glioblastoma cells (living)
T2 sequence (P30968 1-328): T1 sequence (P30968 1-328)
Experimental: The binding of the GnRH analogues to GnRH-R was assessed using single molecule force spectroscopy (SMFS) and Topography and Recognition (TREC) imaging based on AFM. AFM tips were functionalised with Glu-GnRH, goserelin acetate and […] as a monomer and nanofibers using a previously described method ^9, 10. Silicon nitride (6-20 pN/nm spring constant, Bruker, Mass., USA) and magnetically coated […] tips (Keysight, Calif., USA) were used for SMFS and TREC studies, respectively. […] Subsequently, acetal groups were converted into aldehyde groups by immersing the tips in a 1% (w/v) citric acid solution for 10 minutes. […] Following an incubation of 2 hours, the free aldehyde groups were inactivated by ethanolamine for 10 minutes. AFM tips were washed with PBS three times and stored at 4° C. […] Loading rates were calculated by multiplying the pulling velocity (v) with the effective spring constant (keff). Spring constants were determined by the thermal-noise method. The force-distance curves were acquired using PicoView 1.12 (Agilent Technologies, Inc., California, USA) and analysed in Matlab 8.1 software (MathWorks, Massachusetts, USA). […] Amplitude-distance curves were collected on a glass coverslip to adjust the free oscillation amplitude, and to determine the optimal amplitude reduction value for driving the feedback loop during the imaging. Free amplitude of cantilever oscillation was 30 nm and the excitation frequency was set to 9 kHz.

[6] = Enzymatic stability in rat brain homogenates; conditions: 50% (v/v) rat brain homogenates
Experimental: as §2

in vitro = conditions: human
Experimental: In order to test the permeability of TPGnRH nanofibers across the blood-brain barrier (BBB), a static contact co-culture was set up according to a previous method^7. Briefly, human astrocytes (SC-1800, 25,000 cells/well) were seeded on the abluminal side of a 24-well plate Transwell polycarbonate membrane (3 μm of a pore size, Corning Star, Deeside, UK) coated with human fibronectin. Cells were allowed to attach for 3 days, and then human brain microvascular endothelial cells (hCMEC/D3, 75,000 cells/well) were seeded on the luminal side of the Transwell and co-cultured with astrocytes for five days with a daily change of the media. Transendothelial resistance was measured using EVOM voltohmmeter (World Precision Instruments, Berlin, Germany).
Transwells were washed with HBSS and immersed into HBSS (600 μL in abluminal side). […] Samples (100 μL) were collected from the abluminal side at specific time-points, and fresh HBSS (100 μL) was used to replace the volume from the abluminal compartments. […] PAX was analysed using reverse phase-HPLC with the gradient method described on Table 2. TR-TPGnRH was quantified in POLARstar Omega plate reader spectrophotometer with λexc 596 and λem 615 nm. The permeability coefficient (Papp) was determined using the equation: […]
ΔQr, is the flux of drug along time (μg mL^−1), Vr is the volume of the abluminal side (mL), A is the area of the Transwell membrane, C0 is the concentration of drug in the luminal side, and 60, the converser factor from minutes to seconds^8.

physchem = assay: physchem
Experimental: Paclitaxel (PAX)-loaded TPGnRH nanofibers were prepared by adding a PAX solution (250 μL, 2.562 mg mL^−1 in isopropyl alcohol, IPA) to the dry peptide to achieve a molar ratio of 1:1, 1:1.95, 1:3.68 or 1:7.36 of PAX:TPGnRH. After vortexing, bath and probe sonication (200 watts, amplitude 60%, UP200S Ultrasonic, SciMed, Stockport, UK) for 10 minutes, the IPA was removed by rotary evaporation. The film was re-hydrated in acetate buffer (50 mM, pH 4.5), and the final formulation was centrifuged for 5 minutes at 900 rpm to remove undissolved PAX. Supernatant was collected and the amount of PAX and TPGnRH was quantified by reverse phase-HPLC. […] Morphology of PAX-loaded formulations was evaluated using TEM and AFM, as described above.

[7] = Release from 3D printed cellulose-sodium alginate bioinks; type: physicochemical; conditions: PBS
Experimental: Peptide nanofibers were embedded in cellulose nanocrystals and sodium alginate hydrogels. Cellulose nanocrystals were synthesised by sulphuric acid degradation (45% w/v, 150 mls) of cellulose (15 g, Western Hemlock) at 50° C. over 90 minutes under stirring. Cold-deionised water was used to quench reaction and acid was removed by centrifugation (4,000 rpm, 10 minutes). Cellulose nanocrystals were dialysed (12-14 kDa for cytochrome C, Medicell Ltd) over 5 L with 6 changes over 24 hours. Resulting suspension was probe sonicated (400 watt, 23% amplitude, 10 minutes) in 50 mLs aliquots. The resulting suspension was centrifuged (4,000 rpm, 10 minutes) and supernatant was stored in the refrigerator. Cellulose nanocrystals (CNCs, 4.5% w/w, 2 g) were loaded onto a syringe attached to a three-way valve, where a syringe loaded sodium alginate (6% w/w in 4.6% glucose, 1.7 g). The CNCs were injected in the sodium alginate syringe and mixed 10 times (in each direction). Sample was collected in one syringe and a new syringe containing calcium chloride (0.1M, 0.9 mL). Sample was pushed into calcium chloride and mixed 5 times (in each direction) prior collecting the gel in one syringe and loading in cartridges. Peptide nanofibers (5 mg) were dispersed in 0.9 mL of 0.1M calcium chloride and mixed as above when needed. Release of paclitaxel loaded and TPGnRH gels in PBS (1×, 7.4, 6 mLs) was quantified as per HPLC method described previously (Example 7, Table 2). After an initial burst release, a controlled release profile is observed with gradual slow release over days. Resulting inks can be utilised for the production of nanofiber loaded implants for tumour patients.

[8] = after pre-incubation with the free ligand named as label (antibody 1 μg mL^−1, peptides 50 μg mL^−1)
[9] = before addition of the free ligand named as label (no pre-incubation)
[10] = human, MDA-MB-231 breast cancer cell homogenate

SMILES: CC(C)C[C@H](NC(=O)CNC(=O)[C@H](Cc1ccc(O)cc1)NC(=O)[C@H](CO)NC(=O)[C@H](Cc1c[nH]c2ccccc12)NC(=O)[C@H](Cc1cnc[nH]1)NC(=O)[C@@H](N)CCC(=O)O)C(=O)N[C@@H](CCCNC(=N)N)C(=O)N1CCC[C@H]1C(=O)NCC(N)=O [Glu-GnRH, Glu-His-Trp-Ser^4-Tyr^5-Gly^6-Leu-Arg-Pro-Gly-NH2, reference compound]
- Binding Probability of TPGnRH nanofiber tip to U-87 MG cells (GnRH-R on U-87 MG cells; [8]): 3.4%
- Binding Probability of TPGnRH nanofiber tip to U-87 MG cells (GnRH-R on U-87 MG cells; [9]): 12.6%
- Plateau [1]: 3.952 µg/mL
- k ([1]; analyte in brackets of label): 0.1928 min⁻¹
- Plateau ([2]; MDA-MB-231 cell homogenates): 552.9 µg/mL
- k ([2]; MDA-MB-231 cell homogenates): 0.1551 min⁻¹
- AUC(0-t) at 4.03 mM [2, 10]: 20000 µg·h/mL
- C0 at 4.03 mM [2, 10]: 1420 µg/mL
- half-life at 4.03 mM [2, 10]: 4.47 ± 1.27 min
- Plateau [3]: 16.58 µg/mL
- T1/2α [3]: 0.67 ± 0.03 min
- kα [3]: 1.088 min⁻¹
- Plateau [4]: 3.952 µg/mL
- k ([4]; analyte in brackets of label): 0.04021 min⁻¹
- Binding Force ([5]; SEBTA-023): 40.3 ± 11.70 pN
- Binding Probability ([5]; SEBTA-023): 4.93 ± 0.91%
- koff ([5]; SEBTA-023): 1.22 ± 0.31 s⁻¹
- Binding Force ([5]; U-87 MG): 25.88 ± 0.94 pN
- Binding Probability ([5]; U-87 MG): 13.3 ± 1.91%
- koff ([5]; U-87 MG): 1.29 ± 0.34 s⁻¹
- Binding Force ([5]; UP-007): 38.20 ± 9.16 pN
- Binding Probability ([5]; UP-007): 12.84 ± 4.32%
- koff ([5]; UP-007): 1.52 ± 0.2 s⁻¹
- Binding Force ([5]; UP-029): 45.6 ± 4.64 pN
- Binding Probability ([5]; UP-029): 6.93 ± 2.96%
- koff ([5]; UP-029): 1.66 ± 0.25 s⁻¹
- Plateau [6]: 3.952 µg/mL
- k ([6]; analyte in brackets of label): 0.1928 min⁻¹

SMILES: CC(C)C[C@H](NC(=O)[C@@H](COC(C)(C)C)NC(=O)[C@H](Cc1ccc(O)cc1)NC(=O)[C@H](CO)NC(=O)[C@H](Cc1c[nH]c2ccccc12)NC(=O)[C@H](Cc1cnc[nH]1)NC(=O)[C@@H]1CCC(=O)N1)C(=O)N[C@@H](CCCNC(=N)N)C(=O)N1CCC[C@H]1C(=O)NNC(N)=O [Goserelin, goserelin acetate, reference compound]
- Binding Probability of TPGnRH nanofiber tip to U-87 MG cells (GnRH-R on U-87 MG cells; [8]): 3.8%
- Binding Probability of TPGnRH nanofiber tip to U-87 MG cells (GnRH-R on U-87 MG cells; [9]): 16.2%
- Binding Force ([5]; U-87 MG): 29.88 ± 2.34 pN
- Binding Probability ([5]; U-87 MG): 4.4 ± 0.94%
- koff ([5]; U-87 MG): 0.68 ± 0.08 s⁻¹
- Binding Force ([5]; UP-007): 34.00 ± 15.5 pN
- Binding Probability ([5]; UP-007): 7.48 ± 0.76%
- koff ([5]; UP-007): 1.54 ± 0.12 s⁻¹

SMILES: CC(=O)O[C@H]1C(=O)[C@@]2(C)[C@H]([C@H](OC(=O)c3ccccc3)[C@]3(O)C[C@H](OC(=O)[C@H](O)[C@@H](NC(=O)c4ccccc4)c4ccccc4)C(C)=C1C3(C)C)[C@]1(OC(C)=O)CO[C@@H]1C[C@@H]2O [PAX, Paclitaxel, reference compound]
- Papp A→B at 50 μg mL^−1 (in vitro): 0.19 ×10⁻⁶ cm/s
- solubility (physchem; aqueous buffer): 0.92 ± 1.35 µg/mL (≈ 1.08 µM)
- solubility (physchem; aqueous with cosolvent or surfactant or cyclodextrin): 29.3 ± 3.63 µg/mL (≈ 34.3 µM)
- % release from 3D printed bioink ([7]; 0 minutes): 0%
- % release from 3D printed bioink ([7]; 1 minutes): 13.1 ± 15.6%
- % release from 3D printed bioink ([7]; 5 minutes): 13.7 ± 5.6%
- % release from 3D printed bioink ([7]; 10 minutes): 18.0 ± 10.6%
- % release from 3D printed bioink ([7]; 15 minutes): 10.7 ± 2.3%
- % release from 3D printed bioink ([7]; 30 minutes): 11.8 ± 5.2%
- % release from 3D printed bioink ([7]; 45 minutes): 13.7 ± 8.4%
- % release from 3D printed bioink ([7]; 60 minutes): 20.7 ± 9.6%
- % release from 3D printed bioink ([7]; 90 minutes): 24.6 ± 5.1%
- % release from 3D printed bioink ([7]; 120 minutes): 26.9 ± 9.4%
- % release from 3D printed bioink ([7]; 240 minutes): 19.0 ± 10.9%
- % release from 3D printed bioink ([7]; 360 minutes): 24.8 ± 7.3%
- % release from 3D printed bioink ([7]; 1110 minutes): 28.0 ± 11.4%
- % release from 3D printed bioink ([7]; 1440 minutes): 30.2 ± 9.8%
- % release from 3D printed bioink ([7]; 2760 minutes): 37.1 ± 7.2%
